Reference: patent US20250120399A1, “METHODS AND COMPOSITIONS FOR ALTERING METABOLITES IN VITIS SPP. AND PREVENTING PESTS AND PATHOGENS” (Impello Biosciences, Inc., priority 2022, published 2025)

Assays:
Assay type in all cases: in vivo
[1] = test system: Black seedless grapes (Vitis labrusca); experiment: Fruit Brix and titratable acid, black seedless grapes (Example 5); settings: for Fruit BRIX / Titratable Acid, fruit: ABCDE; for Fruit BRIX: Aug. 11, 2022; for Titratable Acid, fruit: Sep. 8, 2022
Method: (§1) Field trials were conducted in California 2022 (a dry year) to investigate the efficacy of MDJ in preventing Sour Rot caused by Aspergillus carbonarius (also known as summer bunch rot, abbreviated ASPECA in Table 7). Black seedless grapes (Vitis labrusca) were used in this trial. Four vines were used per plot. The plots were arranged in a randomized complete block design with six replicates (plots) per treatment. The plots were sprayed five times (ABCDE) at a rate of 500 gal/AC.
(§2) Treatments consisted of MDJ at 32 oz and 48 oz/A. A treatment of Regalia® at 1.5 qt/100 gal and Stargus® at 2 qt/100 gal was included for comparative purposes. Application D occurred at 5-10% veraison. Application E occurred at 40% veraison.
A randomly selected sample of approximately twenty wine grapes was used to evaluate the Brix and titratable acid. Another randomly selected sample (>500 g) was shipped to ETS Laboratories (Paso Robles, CA) for a red grape panel analysis (catechin, quercetin glycosides, tannin, polymeric anthocyanins, total anthocyanins, catechin/tannin index, and polymeric anthocyanins/tannin index). […] Total anthocyanins increased over 17% (449.1 in untreated controls compared to 529.3 in the group treated with 48 oz/A MDJ). An increase in quercetin glycosides, tannin, and polymeric anthocyanins, was also observed in MDJ treated plants (Table 8), as well as titratable acid (Table 9).

[2] = test system: Kyoho grapes (Vitis vinifera×Vitis labrusca); experiment: Cluster weight, grape weight, diameter, grapes per cluster, pH and Brix in Kyoho grapes (Example 6); settings: for Average Brix (FRUIT, BRIX) / Average diameter (FRUIT, DIAMET) / Average fruit per cluster (CLUSTR, COUNT) / Individual grape weight (FRUIT, WEIGHT) / pH (FRUIT, PH) / Average Weight of cluster: applications ABCD; for Average Brix (FRUIT, BRIX) / Average diameter (FRUIT, DIAMET) / Average fruit per cluster (CLUSTR, COUNT) / Individual grape weight (FRUIT, WEIGHT): rated Aug. 17, 2022; for pH (FRUIT, PH): rated Aug. 17, 2022, scale 0-14
Method: as §1, with “10). Kyoho” for “7). Black seedless”, “(Vitis vinifera×Vitis” for “(Vitis”, “Three” for “Four”, “treatment (24 plots total).” for “treatment.”, “four” for “five”, “(ABCD)” for “(ABCDE)”
Treatments consisted of MDJ at 32 oz and 48 oz/A. A treatment of Regalia® at 1.5 qt/100 gal and Stargus® at 2 qt/100 gal was included for comparative purposes.

[3] = test system: Botrytis cinerea; experiment: Botrytis cinerea disease score (0-5) on inoculated hemp plants (Example 7); settings: at harvest, 8 replicates
Method: A Botrytis cinerea isolate was cultured onto potato-dextrose agar (PDA) and re-isolated by taking a mycelial plug from the edge of actively growing cultures every 2-3 weeks to maintain active growing culture. It was maintained at 20° C. under continuous light (˜[…] m^−2 s^−1). An inoculum was prepared by flooding a full grown B. cinerea PDA plate with DI water and 0.1% Tween-20 to create a suspension of fungal spores. Spore count was quantified.
In the first inoculation, a suspension of 1.2×10^4 spores of B. cinerea/mL was created, and 1.5 mL was applied to the top cola/underdeveloped inflorescence of each hemp plant in the first week of flowering. In the second inoculation, a suspension of 1.5×10^5 spores of B. cinerea/mL was created, and sucrose was added to 1% concentration, and the plants were sprayed until drip using a backpack sprayer.
Inoculated plants were placed in a controlled growth environment with a constant temperature of 20-25° C. and 50-70% relative humidity. (See Zhang et al., “Infection Assays of Tomato and Apple Fruit by the Fungal Pathogen Botrytis cinerea,” bio-protocol 2014; 4 (23): 1-4. See also, Bulger et al. Phytopathology 1987; 77 (8): 1225-1230 and Garfinkel, Plant Disease 2020; 104 (7): 2026.)
Treatments comprising 1 mM or 5 mM jasmonate (MDJ) were applied alone or alongside a biological (Continuum™). […]

[4] = test system: Aspergillus carbonarius; experiment: Sour rot incidence and severity on black seedless grapes, 2022 field trial (Example 5); settings: for Sour rot clusters of High severity (PESSEV) / Sour rot clusters of Low severity (PESSEV) / Sour rot clusters of Medium severity (PESSEV): ABCDE; for Sour rot clusters of High severity (PESSEV): Aug. 10, 2022, high = >51%; for Sour rot clusters of Low severity (PESSEV): Aug. 10, 2022, low = <40% of cluster area; for Sour rot clusters of Medium severity (PESSEV): Aug. 10, 2022, medium = 41%-50%; for Sour rot infected clusters (PESINC): applications ABCDE, rated Aug. 10, 2022
Method: as §1, §2
Botrytis and powdery mildew were absent for the trial. An evaluation of sour rot was completed before the harvest. The area of an infected cluster was estimated into a percentage and categorized into three levels of severity: low (<40%), medium (41%-50%), and high (>51%). The majority of individual infected clusters had low severity.

SMILES: CCCCCC1C(=O)CCC1CC(=O)OC (stereo not shown) [MDJ, methyl dihydrojasmonate]
- Fruit BRIX ([1]; 32 oz/a): 19.080— %
- Titratable Acid, fruit ([1]; 32 oz/a): 5.83— g/L
- Fruit BRIX ([1]; 48 oz/a): 19.560— %
- Titratable Acid, fruit ([1]; 48 oz/a): 6.67— g/L
- Fruit Brix vs untreated ([1]; MDJ treated plants): increase
- Titratable acid vs untreated ([1]; MDJ treated plants): increase
- Average Brix (FRUIT, BRIX) ([2]; 32 oz/a): 20.73%
- Average diameter (FRUIT, DIAMET) ([2]; 32 oz/a): 23.778 mm
- Average fruit per cluster (CLUSTR, COUNT) ([2]; 32 oz/a): 32.5 number
- Individual grape weight (FRUIT, WEIGHT) ([2]; 32 oz/a): 7.277 g
- pH (FRUIT, PH) ([2]; 32 oz/a): 4.0
- Average Brix (FRUIT, BRIX) ([2]; 48 oz/a): 20.17%
- Average diameter (FRUIT, DIAMET) ([2]; 48 oz/a): 23.917 mm
- Average fruit per cluster (CLUSTR, COUNT) ([2]; 48 oz/a): 34.3 number
- Individual grape weight (FRUIT, WEIGHT) ([2]; 48 oz/a): 7.232 g
- pH (FRUIT, PH) ([2]; 48 oz/a): 4.0
- Average Weight of cluster ([2]; Aug. 17, 2022, 32 oz/a): 234.287a g
- Average Weight of cluster ([2]; Aug. 17, 2022, 48 oz/a): 246.350a g
- Diameter of individual grapes ([2]; MDJ treatment): did not significantly affect
- Weight of individual grapes ([2]; MDJ treatment): did not significantly affect
- pH of individual grapes ([2]; MDJ treatment): did not significantly affect
- Grapes per cluster vs standard control (Regalia and Stargus) ([2]; both rates of MDJ (32 and 48 oz/A)): significantly more grapes per cluster
- Brix level compared to other treatments ([2]; higher rate of MDJ (48 oz/A)): statistically reduced the Brix level
- Average Disease Score (0-5) ([3]; condition B, 1 mM MDJ foliar spray): 2.625
- Average Disease Score (0-5) ([3]; condition C, 5 mM MDJ foliar spray): 2.250
- Sour rot clusters of High severity (PESSEV) ([4]; 32 oz/a): 1.3— NUMBER
- Sour rot clusters of Low severity (PESSEV) ([4]; 32 oz/a): 7.2— NUMBER
- Sour rot clusters of Medium severity (PESSEV) ([4]; 32 oz/a): 5.3— NUMBER
- Sour rot infected clusters (PESINC) ([4]; 32 oz/a): 13.8— NUMBER
- Sour rot clusters of High severity (PESSEV) ([4]; 48 oz/a): 0.8— NUMBER
- Sour rot clusters of Low severity (PESSEV) ([4]; 48 oz/a): 6.2— NUMBER
- Sour rot clusters of Medium severity (PESSEV) ([4]; 48 oz/a): 5.3— NUMBER
- Sour rot infected clusters (PESINC) ([4]; 48 oz/a): 12.3— NUMBER
- Control of sour rot compared to the rest of the treatments ([4]; higher rate of MDJ Elicitor (48 oz/A)): most effective at controlling sour rot
